Test results reported in article PMC4355590, “A Kinetic Study of the Main Guaco Metabolites Using Syrup Formulation and the Identification of an Alternative Route of Coumarin Metabolism in Humans” (PLoS ONE, 2015).

How the values were obtained:
[1] = Stability of stock solutions and working standard solutions; format: physicochemical; settings: for Mean recovery: n = 8, ± SD
Experimental: The stability of the stock solutions (1 mg/mL of each analyte and ISs) was evaluated after 30 days of storage in a refrigerator (4°C, amber bottles). The stored solutions were diluted with acetonitrile/water (70:30 v/v) to obtain the same concentration levels as the short-term stability assay. The stability of the stock solutions was evaluated by comparing the mean recovery of the analytes and IS obtained from stored samples to the mean values obtained with freshly prepared samples, at the same concentration levels. The stability of the working standard solutions was assessed using a procedure similar to that described for stock solution stability. […]

[2] = Stability in human plasma: short-term, freeze-thaw and long-term; format: in vitro ADME; settings: for Mean recovery: n = 8, ± SD
Experimental: The samples were vortexed for 2 min and then were kept at room temperature for 8 h. Afterward, the samples were spiked with 50 μL of IS solution and were vortexed (2 min) and submitted to the extraction procedures. The short-term stability was evaluated by comparing the mean recovery of the analytes and the IS obtained from stored samples with the mean values obtained with freshly prepared samples, at same concentration levels.
(§1) Freeze-thawed, post-preparative and long-term stability assay samples were prepared and evaluated similar to the short-term stability samples. However, the freeze thawing assay was assessed after undergoing three freeze-thaw cycles (one freeze-thaw cycle per day on three consecutive days) and post-preparative assay, maintaining the extracted samples for 24 hours in the Sample Manager (20°C, transparent vials). The long-term stability of human plasma stored at -40°C was assessed at the end of the study (60 days).

[3] = Post-preparative stability of extracted samples; format: physicochemical; settings: for Mean recovery: n = 8, ± SD
Experimental: as §1

[4] = Initial screening of bioavailability: 60 mL of guaco syrup orally; format: in vivo, human; settings: 60 mL guaco syrup (17.6 mg COU, 1.1 mg OCA, 8.9 mg KAU), up to 600 min
Experimental: All the volunteers fasted for 8 h prior to the administration of guaco syrup and blood collection. […] The anticoagulant used was tetrasodium edetate. […] The pharmacokinetic analysis was performed using a non-compartmental model, considering an extravascular administration route and using WinNonlin Professional software, version 5.3. The relationships among the areas under the curves (r areas = AUC0-t/AUC0-inf), were used to confirm the suitability of the experimental design.

[5] = tested on: synthesis of nitric oxide; set-up: method as in PMID 21211951; settings: LPS-induced RAW264.7 macrophages; read-out: IC50, inhibition of the synthesis of nitric oxide; cited from earlier work
[6] = tested on: release of prostaglandin E2; set-up: method as in PMID 21211951; settings: LPS-induced RAW264.7 macrophages; cited from earlier work
cyclooxygenase-2 = target: cyclooxygenase-2; set-up: method as in PMID 21211951; settings: LPS-induced RAW264.7 macrophages; cited from earlier work
[7] = tested on: carrageenan-induced paw edema; set-up: method as in PMID 21211951; settings: mice, 50 mg/kg, 5 h after the induction of inflammation; cited from earlier work
[8] = tested on: endothelium-intact or denuded rat aortic rings; set-up: method as in PMID 15178370, PMID 11864765; settings: cited from earlier work
[9] = set-up: method as in PMID 7150456; settings: cited from earlier work
[10] = 8 h at room temperature, internal standard level (6-methylcoumarin 500.0, Isoferulic acid 1000.0, Prednisone 500.0 ng/mL)
[11] = 8 h at room temperature, internal standard level, stored vs freshly prepared
[12] = 30 days at 4 °C (stock solutions), internal standard level (500.0, 1000.0, 500.0 ng/mL)
[13] = 30 days at 4 °C, internal standard level
[14] = Short-term, internal standard level
[15] = Short-term, internal standard level (500.0, 1000.0, 500.0 ng/mL)
[16] = post-preparative, internal standard level
[17] = post-preparative, internal standard level (500.0, 1000.0, 500.0 ng/mL)

Compound: Cc1ccc2oc(=O)ccc2c1 [6-methylcoumarin, reference compound]
- Mean recovery [1, 10]: 497.3 ± 3.8 ng/mL
- RE [1, 11]: -0.54%
- Mean recovery [1, 12]: 480.6 ± 46.6 ng/mL
- RE [1, 13]: -3.89%
- RE [2, 14]: 0.45%
- Mean recovery [2, 15]: 501.1 ± 1.6 ng/mL
- RE [3, 16]: -6.38%
- Mean recovery [3, 17]: 468.1 ± 22.6 ng/mL

Compound: COc1ccc(/C=C/C(=O)O)cc1O [Isoferulic acid, isoferulic acid, reference compound]
- Mean recovery [1, 10]: 950.0 ± 75.2 ng/mL
- RE [1, 11]: -5.00%
- Mean recovery [1, 12]: 1037.5 ± 68.1 ng/mL
- RE [1, 13]: 3.75%
- RE [2, 14]: -0.07%
- Mean recovery [2, 15]: 999.3 ± 62.2 ng/mL
- RE [3, 16]: -1.35%
- Mean recovery [3, 17]: 986.5 ± 31.7 ng/mL

Compound: C=C1C[C@@]23CC[C@H]4[C@@](C)(CCC[C@@]4(C)C(=O)O)[C@@H]2CC[C@@H]1C3 [KAU, kaurenoic acid]
- plasma levels after guaco syrup without spiking [4]: did not provide sufficient levels
- Mean recovery ([1]; 8 h at room temperature, high level (Coumarin 1250.0, 7-hydroxycoumarin 750.0, o-coumaric acid 750.0, Kaurenoic acid 500.0 ng/mL)): 516.6 ± 5.1 ng/mL
- RE ([1]; 8 h at room temperature, high level, stored vs freshly prepared): 3.33%
- Mean recovery ([1]; 8 h at room temperature, low level (Coumarin 50.0, 7-hydroxycoumarin 12.5, o-coumaric acid 25.0, Kaurenoic acid 10.0 ng/mL)): 10.2 ± 0.7 ng/mL
- RE ([1]; 8 h at room temperature, low level, stored vs freshly prepared): 8.94%
- Mean recovery ([1]; 30 days at 4 °C (stock solutions), high level (1250.0, 750.0, 750.0, 500.0 ng/mL)): 487.8 ± 34.9 ng/mL
- Mean recovery ([1]; 30 days at 4 °C (stock solutions), low level (50.0, 12.5, 25.0, 10.0 ng/mL)): 9.75 ± 0.6 ng/mL
- RE ([1]; 30 days at 4 °C, high level): 3.33%
- RE ([1]; 30 days at 4 °C, low level): -2.46%
- Mean recovery ([2]; Long-term: plasma at -40°C, 60 days, high level (1250.0, 750.0, 750.0, 500.0 ng/mL)): 463.2 ± 12.3 ng/mL
- Mean recovery ([2]; Long-term: plasma at -40°C, 60 days, low level (50.0, 12.5, 25.0, 10.0 ng/mL)): 8.8 ± 0.3 ng/mL
- RE ([2]; Long-term, high level): -7.36%
- RE ([2]; Long-term, low level): -11.70%
- Mean recovery ([2]; Short-term: plasma at room temperature for 8 h, high level (1250.0, 750.0, 750.0, 500.0 ng/mL)): 498.9 ± 7.6 ng/mL
- Mean recovery ([2]; Short-term: plasma at room temperature for 8 h, low level (50.0, 12.5, 25.0, 10.0 ng/mL)): 10.0 ± 0.3 ng/mL
- RE ([2]; Short-term, high level): -0.22%
- RE ([2]; Short-term, low level): 0.23%
- RE ([2]; freeze–thaw cycles, high level): 0.49%
- RE ([2]; freeze–thaw cycles, low level): -0.41%
- Mean recovery ([2]; three freeze–thaw cycles, plasma, high level (1250.0, 750.0, 750.0, 500.0 ng/mL)): 502.5 ± 6.1 ng/mL
- Mean recovery ([2]; three freeze–thaw cycles, plasma, low level (50.0, 12.5, 25.0, 10.0 ng/mL)): 9.9 ± 0.4 ng/mL
- Mean recovery ([3]; post-preparative: extracted samples 24 hours at 20°C, high level (1250.0, 750.0, 750.0, 500.0 ng/mL)): 509.8 ± 6.6 ng/mL
- Mean recovery ([3]; post-preparative: extracted samples 24 hours at 20°C, low level (50.0, 12.5, 25.0, 10.0 ng/mL)): 9.8 ± 0.4 ng/mL
- RE ([3]; post-preparative, high level): 1.96%
- RE ([3]; post-preparative, low level): -1.70%
- IC50 [5]: 51.7 µM
- IC50 [6]: 106 µM
- IC50, expression of cyclooxygenase-2 activity (cyclooxygenase-2): 3.5 µg/mL
- reduction of the swelling [7]: 34.4%
- concentration promoting vasodilatory effects in rat aortas ([8]; endothelium-intact or denuded rings): greater than 10 mM
- concentration with concentration-dependent activity on vascular smooth muscle ([8]; rat aortic rings pre-contracted with phenylephrine and potassium chloride): ≥ 10 µM

Compound: C[C@]12C=CC(=O)C=C1CC[C@@H]1[C@@H]2C(=O)C[C@@]2(C)[C@H]1CC[C@]2(O)C(=O)CO [Prednisone, prednisone, reference compound]
- Mean recovery [1, 10]: 470.5 ± 26.6 ng/mL
- RE [1, 11]: -5.90%
- Mean recovery [1, 12]: 497.0 ± 13.9 ng/mL
- RE [2, 14]: 0.43%
- Mean recovery [2, 15]: 502.2 ± 11.1 ng/mL
- RE [3, 16]: -4.14%
- Mean recovery [3, 17]: 479.3 ± 16.9 ng/mL

Compound: Cn1c(=O)c2[nH]cnc2n(C)c1=O [theophylline]
- clearance [9]: 2.8 L/h
